Measurements: the supplement of paper PMC10307832

What follows are cell lines tested with COCC[n+]1c2c(n(Cc3cnccn3)c1C)C(=O)c1ccccc1C2=O [YM155] + CC(=O)Nc1cccc(-n2c(=O)n(C3CC3)c(=O)c3c(Nc4ccc(I)cc4F)n(C)c(=O)c(C)c32)c1 [Trametinib] (partner 0.02 µM) (assay: relative viability (nuclei count vs DMSO), 5 days (fraction); higher = more cells survive). Conditions: first compound 0.06325 µM.
Summary of the method: (§1)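 Lung cancer cell lines, seeded in 1536-well plates, were treated the following day by pin tool with a single drug or with five library-drug doses (not always all listed) in √10 steps on top of a fixed anchor-drug dose. Cells were fixed and nuclei stained in one step after 5 days, and nuclei were counted. Relative viability is the nuclei count for treated wells divided by that for vehicle wells, reported as medians of duplicate plates.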

First: NCI-H1437
Second: NCI-H1395
The relative viability of the first is lower: 0.469 for the first, 1.2 for the second.

First: NCI-H2009
Second: HCC-366
The relative viability of the first is higher: 0.358 for the first, 0.353 for the second.

First: NCI-H1915
Second: NCI-H2347
The relative viability of the first is higher: 0.349 for the first, 0.283 for the second.

Compared with LCLC-103H, NCI-H1734 is higher in relative viability: 0.716 for the first, 0.741 for the second.

First: HCC-78
Second: COR-L 105
The relative viability of the first is higher: 0.879 for the first, 0.456 for the second.

First: NCI-H2170
Second: SW 900
The relative viability of the first is higher: 0.966 for the first, 0.809 for the second.

Going from NCI-H2342 to NCI-H1650, the relative viability falls from 0.757 to 0.355.

Compared with ChaGo-K-1, NCI-H522 is lower in relative viability: 0.913 for the first, 0.75 for the second.

The cell lines below were run with COCC[n+]1c2c(n(Cc3cnccn3)c1C)C(=O)c1ccccc1C2=O [YM155] + CCNC(=O)c1noc(-c2cc(C(C)C)c(O)cc2O)c1-c1ccc(CN2CCOCC2)cc1 [Luminespib] (partner 0.01 µM) in the same assay as above. Conditions: first compound 0.002 µM.
Summary of the method: as §1

First: EKVX
Second: EPLC-272H
The relative viability of the first is higher: 0.847 for the first, 0.378 for the second.

First: NCI-H520
Second: NCI-H1563
The relative viability of the first is lower: 0.238 for the first, 0.554 for the second.

Going from NCI-H650 to RERF-LC-KJ, the relative viability rises from 0.768 to 1.14.

Compared with HCC-827, NCI-H2087 is lower in relative viability: 0.662 for the first, 0.194 for the second.

Compared with SK-MES-1, NCI-H1651 is higher in relative viability: 0.437 for the first, 0.869 for the second.

First: UMC-11
Second: NCI-H1355
The relative viability of the first is higher: 0.932 for the first, 0.633 for the second.

Compared with H3255, NCI-H1792 is lower in relative viability: 0.752 for the first, 0.441 for the second.

First: NCI-H647
Second: NCI-H1623
The relative viability of the first is lower: 0.151 for the first, 0.43 for the second.

Going from LCLC-97TM1 to LXF-289, the relative viability falls from 0.838 to 0.651.

Going from LU99A to NCI-H2023, the relative viability rises from 0.233 to 0.771.

Compared with NCI-H2228, NCI-H1437 is higher in relative viability: 0.16 for the first, 1.1 for the second.

Compared with NCI-H1395, NCI-H2009 is higher in relative viability: 0.934 for the first, 1.08 for the second.

Going from NCI-H1915 to NCI-H2347, the relative viability falls from 0.803 to 0.409.

First: LCLC-103H
Second: ABC-1
The relative viability of the first is higher: 0.927 for the first, 0.439 for the second.

First: NCI-H1734
Second: COR-L 105
The relative viability of the first is lower: 0.242 for the first, 0.813 for the second.

Going from NCI-H2170 to SW 900, the relative viability falls from 0.525 to 0.179.

Going from NCI-H2342 to NCI-H1650, the relative viability falls from 0.721 to 0.181.

Compared with ChaGo-K-1, NCI-H522 is higher in relative viability: 0.651 for the first, 1.21 for the second.

Same assay, conditions: first compound 0.006325 µM

Compared with EKVX, EPLC-272H is lower in relative viability: 0.855 for the first, 0.327 for the second.

Going from NCI-H520 to NCI-H1563, the relative viability rises from 0.266 to 0.455.

Compared with NCI-H650, RERF-LC-KJ is higher in relative viability: 0.803 for the first, 1 for the second.

Going from HCC-827 to NCI-H2087, the relative viability falls from 0.451 to 0.17.

Going from SK-MES-1 to NCI-H1651, the relative viability rises from 0.359 to 0.836.

Compared with UMC-11, NCI-H1355 is lower in relative viability: 1.08 for the first, 0.724 for the second.

First: H3255
Second: NCI-H1792
The relative viability of the first is higher: 0.949 for the first, 0.47 for the second.

Going from NCI-H647 to NCI-H1623, the relative viability rises from 0.148 to 0.464.

Compared with LCLC-97TM1, LXF-289 is lower in relative viability: 0.816 for the first, 0.683 for the second.

Going from LU99A to NCI-H2023, the relative viability rises from 0.263 to 0.678.

Going from NCI-H2228 to NCI-H1437, the relative viability rises from 0.148 to 1.1.

Going from NCI-H1395 to NCI-H2009, the relative viability rises from 0.81 to 0.986.

Compared with NCI-H1915, NCI-H2347 is lower in relative viability: 0.809 for the first, 0.41 for the second.

Compared with LCLC-103H, ABC-1 is lower in relative viability: 0.832 for the first, 0.386 for the second.

Going from NCI-H1734 to COR-L 105, the relative viability rises from 0.202 to 0.641.

Going from NCI-H2170 to SW 900, the relative viability falls from 0.751 to 0.188.

Compared with NCI-H2342, NCI-H1650 is lower in relative viability: 0.788 for the first, 0.197 for the second.

First: ChaGo-K-1
Second: NCI-H522
The relative viability of the first is lower: 0.509 for the first, 1.1 for the second.

Same assay, conditions: first compound 0.02 µM

Compared with EKVX, EPLC-272H is lower in relative viability: 0.888 for the first, 0.186 for the second.

Compared with NCI-H520, NCI-H1563 is higher in relative viability: 0.215 for the first, 0.542 for the second.

First: NCI-H650
Second: RERF-LC-KJ
The relative viability of the first is lower: 0.75 for the first, 1.18 for the second.

Compared with HCC-827, NCI-H2087 is lower in relative viability: 0.403 for the first, 0.148 for the second.

Compared with SK-MES-1, NCI-H1651 is higher in relative viability: 0.234 for the first, 0.789 for the second.

Going from UMC-11 to NCI-H1355, the relative viability falls from 1 to 0.733.

First: H3255
Second: NCI-H1792
The relative viability of the first is higher: 0.948 for the first, 0.475 for the second.

Compared with NCI-H647, NCI-H1623 is higher in relative viability: 0.162 for the first, 0.458 for the second.

Compared with LCLC-97TM1, LXF-289 is lower in relative viability: 0.717 for the first, 0.675 for the second.

First: LU99A
Second: NCI-H2023
The relative viability of the first is lower: 0.275 for the first, 0.682 for the second.

First: NCI-H2228
Second: NCI-H1437
The relative viability of the first is lower: 0.104 for the first, 0.976 for the second.

Going from NCI-H1395 to NCI-H2009, the relative viability rises from 0.798 to 1.04.

First: NCI-H1915
Second: NCI-H2347
The relative viability of the first is higher: 0.829 for the first, 0.647 for the second.

First: LCLC-103H
Second: ABC-1
The relative viability of the first is higher: 0.846 for the first, 0.169 for the second.

Compared with NCI-H1734, COR-L 105 is higher in relative viability: 0.23 for the first, 0.57 for the second.

Going from NCI-H2170 to SW 900, the relative viability falls from 0.647 to 0.164.

First: NCI-H2342
Second: NCI-H1650
The relative viability of the first is higher: 0.738 for the first, 0.175 for the second.

Going from ChaGo-K-1 to NCI-H522, the relative viability rises from 0.715 to 1.04.

Same assay, conditions: first compound 0.06325 µM

Going from EKVX to EPLC-272H, the relative viability falls from 0.724 to 0.24.

Going from NCI-H520 to NCI-H1563, the relative viability rises from 0.233 to 0.555.

Compared with NCI-H650, RERF-LC-KJ is higher in relative viability: 0.89 for the first, 1.15 for the second.

First: HCC-827
Second: NCI-H2087
The relative viability of the first is higher: 0.586 for the first, 0.149 for the second.

Going from SK-MES-1 to NCI-H1651, the relative viability rises from 0.169 to 0.604.

First: UMC-11
Second: NCI-H1355
The relative viability of the first is higher: 1.11 for the first, 0.683 for the second.

Going from H3255 to NCI-H1792, the relative viability falls from 1.02 to 0.403.

Going from NCI-H647 to NCI-H1623, the relative viability rises from 0.106 to 0.497.

Going from LCLC-97TM1 to LXF-289, the relative viability falls from 0.71 to 0.504.

Compared with LU99A, NCI-H2023 is higher in relative viability: 0.219 for the first, 0.349 for the second.

Going from NCI-H2228 to NCI-H1437, the relative viability rises from 0.144 to 0.76.

Going from NCI-H1395 to NCI-H2009, the relative viability falls from 0.971 to 0.476.

First: NCI-H1915
Second: NCI-H2347
The relative viability of the first is higher: 0.711 for the first, 0.368 for the second.

Going from LCLC-103H to ABC-1, the relative viability falls from 1.04 to 0.256.

Going from NCI-H1734 to COR-L 105, the relative viability rises from 0.174 to 0.529.
